Tested on: multidrug‐resistant A. baumannii
Test: Peptide MIC, standard microbroth dilution assay
Assay type: cell-based, Acinetobacter baumannii
Settings: result in words, based on MIC

## LKIPGFVKDTLKKVAKGIFSAVAGAMTPS [Hymenochirin‐2B]
  potency against multidrug‐resistant A. baumannii: high potency

— paper PMC7891380 (Chemical Biology & Drug Design, 2020)
